Laboratory results from US20230110595A1, “MIXTURE OF PYRETHROIDS AND MILBEMYCINS AND USES THEREOF” (Valent BioSciences LLC, priority 2021, published 2023).

What was measured:
Type in all cases: in vivo
[1] = system: Permethrin Resistant C. quinquefasciatus; assay: Wind tunnel bioassay, adult mosquitoes, Example 2 (September 2021)
Protocol: (§1) In this bioassay, a wind tunnel bioassay was performed in the United States of America in September 2021. Culex quinquefasciatus that were known to be resistant and susceptible to permethrin were used in the studies. The following solutions were applied to adult C. quinquefasciatus mosquitoes: 1) 0.5% moxidectin; 2) 0.5% pyrethrum; and 3) a mixture of 0.5% pyrethrum and 0.5% moxidectin.
(§2) Percent mortality was recorded at 15 minutes (“Min”), 1 hour (“Hr”), 24 hours and 48 hours. OCE:ECE ratios were calculated as in Example 1, above.

[2] = system: Permethrin Susceptible C. quinquefasciatus; assay: as above
Protocol: as §1, §2

[3] = system: Permethrin Resistant C. quinquefasciatus; assay: Wind tunnel bioassay, adult mosquitoes, Example 1 (May 2021)
Protocol: as §1, with “in May” for “in September”, “1) 1.5%” for “1) 0.5%”, “2) 5% permethrin; 3) 2.5%” for “2) 0.5%”, “pyrethrum; 4)” for “pyrethrum; and 3)”, “of 5% permethrin and 1.5% moxidectin; and 5) a mixture of 2.5%” for “of 0.5%”, “and 1.5%” for “and 0.5%”
(§3) To determine if the mixtures provided unexpected results, the observed combined efficacy (“OCE”) was divided by the expected combined efficacy (“ECE”) wherein the expected ECE is calculated by the Abbott method: […]
(§4) wherein ECE is the expected combined efficacy and in which A and B are the percent control given by the single active ingredients. If the ratio between the OCE of the mixture and the ECE of the mixture is greater than 1, then greater than expected interactions are present in the mixture. (Gisi, Synergistic Interaction of Fungicides in Mixtures, The American Phytopathological Society, 86:11, 1273-1279, 1996). Percent mortality was recorded at 15 minutes (“Min”), 1 hour (“Hr”), 24 hours and 48 hours.

[4] = system: Permethrin Susceptible C. quinquefasciatus; assay: as above
Protocol: as §1, with “in May” for “in September”, “1) 1.5%” for “1) 0.5%”, “2) 5% permethrin; 3) 2.5%” for “2) 0.5%”, “pyrethrum; 4)” for “pyrethrum; and 3)”, “of 5% permethrin and 1.5% moxidectin; and 5) a mixture of 2.5%” for “of 0.5%”, “and 1.5%” for “and 0.5%”
as §3, §4

| Structure (SMILES) | % Mortality ([1]; 1 Hr) [%] | % Mortality ([1]; 15 Min) [%] | % Mortality ([1]; 24 Hr) [%] | % Mortality ([1]; 48 Hr) [%] | % Mortality ([2]; 1 Hr) [%] | % Mortality ([2]; 15 Min) [%] | % Mortality ([2]; 24 Hr) [%] | % Mortality ([2]; 48 Hr) [%] | % Mortality ([3]; 1 Hr) [%] | % Mortality ([3]; 15 Min) [%] | % Mortality ([3]; 24 Hr) [%] | % Mortality ([3]; 48 Hr) [%] | % Mortality ([4]; 1 Hr) [%] | % Mortality ([4]; 15 Min) [%] | % Mortality ([4]; 24 Hr) [%] | % Mortality ([4]; 48 Hr) [%] | control ([4]; span over 15 minutes to 48 hours) [%] |
| --- | --- | --- | --- | --- | --- | --- | --- | --- | --- | --- | --- | --- | --- | --- | --- | --- | --- |
| CO/N=C1\C[C@]2(C[C@@H]3C[C@@H](C/C=C(\C)C[C@@H](C)/C=C/C=C4\CO[C@@H]5[C@H](O)C(C)=C[C@@H](C(=O)O3)[C@]45O)O2)O[C@H](/C(C)=C/C(C)C)[C@H]1C [0.5% Moxidectin, moxidectin] | 0.00 | 0.00 | 11.25 | 8.75 | 26.25 | 1.25 | 95.00 | 95.00 | – | – | – | – | – | – | – | – | – |
| CO/N=C1\C[C@]2(C[C@@H]3C[C@@H](C/C=C(\C)C[C@@H](C)/C=C/C=C4\CO[C@@H]5[C@H](O)C(C)=C[C@@H](C(=O)O3)[C@]45O)O2)O[C@H](/C(C)=C/C(C)C)[C@H]1C [1.5% Moxidectin, moxidectin] | – | – | – | – | – | – | – | – | 0 | 15 | 68.75 | 50 | 67.5 | 53.75 | 92.5 | 92.5 | – |
| CC1(C)C(C=C(Cl)Cl)C1C(=O)OCc1cccc(Oc2ccccc2)c1 (stereo not shown) [5% Permethrin, permethrin] | – | – | – | – | – | – | – | – | 81.25 | 35 | 97.5 | 96.25 | 100 | 100 | 100 | 100 | ~100 |
